Data set [1] has as its system J774 murine macrophage cells. Briefly: MTT cytotoxicity assay of free ceramide and liposomes, 72 hours. It counts as cell-based. The conditions noted are these: liposome concentration corrected for ceramide content. The procedure: (§1) Human estrogen receptor negative MDA435/LCC6 wild-type and MDR-1 gene transfected MDA435/LCC6^MDR1 multidrug resistant breast cancer cell lines were obtained from Dr. Robert Clark, Georgetown University, Washington, D.C. J774 murine macrophage cells were obtained from ATCC (Rockville, Md.). All cells were grown as adherent monolayer cultures in 25-cm^2 Falcon flasks in DMEM supplemented with 10% fetal bovine serum and 1% L-glutamine. Cells were maintained at 37° C. in humidified air with 5% CO2. Cells were sub-cultured weekly using 0.25% trypsin with 1 mM EDTA (MDA435/LCC6) or gentle cell scraping (J774).
(§2) Cell suspensions were diluted 1:1 with trypan blue, counted with a hemocytometer and seeded into 96-well microtitre plates at […] in 0.2 ml complete medium. […] After 72 hours the cell viability was assessed using a conventional 3-(4,5-dimethylthiazol-2-yl)-2,5-diphenyl tetrazolium bromide (MTT) dye reduction assay. […] The formazan dye was measured spectrophotometrically using a Dynex plate reader (570 nm). […] The cytotoxic effect of each treatment was expressed as percent cell viability relative to untreated control cells (% control) and is defined as: [(Abs570 treated cells)/( Abs570 control cells)]×100.
The inventors next determined whether the stable formulation of C16-ceramide into CHEMS liposomes translated into enhanced cytotoxicity in vitro. […]

The test system of data set [2] is MDA435/LCC6 wild-type and MDR-1 gene transfected MDA435/LCC6MDR1 breast cancer cells. As to the kind of experiment: MTT cytotoxicity assay of free ceramides, 72 hours. The data set is classed as cell-based, human. The conditions noted are these: free ceramide, wild-type and MDR1 MDA435/LCC6 cells, not separated. The procedure:
as §1
as §2, with “medium. The perimeter wells were not used and contained 0.2 ml sterile water.” for “medium.”, “cells)]×100. […]” for “cells)]×100.”

Compound `CCCCCCCCCCCCC/C=C/[C@@H](O)[C@H](CO)NC(=O)CCCCC` [C6-ceramide] registered an IC50 in data set [1] of 14.4 µM.

The compound `CCCCCCCCCCCCC/C=C/[C@@H](O)[C@H](CO)NC(=O)CCCCCCCCC` [C10-ceramide] yielded an IC50 in data set [2] of around 45 µM.

In data set [1], `CCCCCCCCCCCCC/C=C/[C@@H](O)[C@H](CO)NC(=O)CCCCCCCCCCCCCCC` [C16-ceramide] displayed an IC50 above 100 µM.
